Laboratory results: PubChem BioAssay (NCI)
Several values for one entry are separate records, joined by “and”; a condition that tells them apart may be missing. Identical values can stand only once.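 Results reflect a 48-hour exposure of cells in 96-well plates to compound at five concentrations. The concentration for 50% growth inhibition is given as GI50. TGI marks complete inhibition of growth.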

Assays:
Test in all cases: NCI anticancer screen, dose series, 48 h
UACC-257 melanoma = tested on: UACC-257 melanoma
SK-OV-3 ovarian = tested on: SK-OV-3 ovarian
MOLT-4 leukemia = tested on: MOLT-4 leukemia
UACC-62 melanoma = tested on: UACC-62 melanoma
786-0 renal = tested on: 786-0 renal
HL-60(TB) leukemia = tested on: HL-60(TB) leukemia
MDA-N = tested on: MDA-N
SNB-19 CNS = tested on: SNB-19 CNS
T-47D breast = tested on: T-47D breast
SF-268 CNS = tested on: SF-268 CNS
SW-620 colon = tested on: SW-620 colon
NCI-H226 lung = tested on: NCI-H226 lung

Row | SMILES | TGI (UACC-257 melanoma) | TGI (SK-OV-3 ovarian) | TGI (MOLT-4 leukemia) | TGI (UACC-62 melanoma) | TGI (786-0 renal) | TGI (HL-60(TB) leukemia) | TGI (MDA-N) | TGI (SNB-19 CNS) | TGI (T-47D breast) | TGI (SF-268 CNS) | TGI (SW-620 colon) | TGI (NCI-H226 lung) | GI50 (SK-OV-3 ovarian) | GI50 (UACC-62 melanoma) | GI50 (SW-620 colon)
1 | O=C1c2c(F)c(F)c(F)c(F)c2SC2=Nc3cccc4cccc(c34)N12 | 13.2 µM | 23.2 µM | 6.01 µM | 11 µM | 16.9 µM | > 20 µM | 16.7 µM | 21.1 µM | 4.9 µM | 13.7 µM | 12 µM | 28.7 µM | – | – | –
2 | NC(CS)C(=O)NCCNc1ccc(NCCNC(=O)C(N)CS)c2c1C(=O)c1c(O)ccc(O)c1C2=O (stereo unspecified) | 2.41 µM and 2.29 µM | – | 0.62 µM | 0.516 µM and 0.249 µM | 0.0831 µM and 0.0438 µM | 0.0414 µM | 1.68 µM | 1.11 µM and 1.21 µM | 1.45 µM | 0.953 µM | 1.24 µM and 1.01 µM | 0.0616 µM and 0.0476 µM | 0.0165 µM | 0.0196 µM | 0.0218 µM
3 | COc1ccc(N2C(=O)C(=O)C3(CCCCC3)C2=O)c(OC)c1OC | > 100 µM | > 100 µM | > 100 µM | > 100 µM | > 100 µM | > 100 µM | > 100 µM | > 100 µM | > 100 µM | > 100 µM | > 100 µM | > 100 µM | – | – | –
4 | CC1=C(C(=O)NCCCN(CCO)CCO)CC(C(=O)NCCCN(CCO)CCO)=C(C)N1 | > 100 µM | > 100 µM | > 100 µM | > 100 µM | > 100 µM | > 100 µM | > 100 µM | > 100 µM | > 100 µM | > 100 µM | > 100 µM | > 100 µM | – | – | –
5 | O=C1C=CC(=O)[C@H]2C3C=CC(C4C3C3(Cl)C(Cl)=C(Cl)[C@]4(Cl)C3(Cl)Cl)[C@@H]12 (stereo partly specified) | 6.23 µM | 27.3 µM | 36 µM | 21 µM | 18.4 µM | 4.63 µM | 15.8 µM | 17 µM | 23.2 µM | 18.4 µM | 23.2 µM | 23.5 µM | – | – | –
6 | CCOC(=O)C(NC(=O)c1ccccc1)(Nc1ccc(S(=O)(=O)Nc2ccc(OC)nn2)cc1)C(F)(F)F (stereo unspecified) | > 100 µM | > 100 µM | > 100 µM | > 100 µM | > 100 µM | > 100 µM | > 100 µM | > 100 µM | > 100 µM | > 100 µM | > 100 µM | > 100 µM | – | – | –
7 | COc1cccc(/C=N/NC(=O)CN(C)C)c1O | > 100 µM | > 100 µM | > 100 µM | > 100 µM | > 100 µM | > 100 µM | > 100 µM | > 100 µM | > 100 µM | > 100 µM | > 100 µM | > 100 µM | – | – | –
8 | CCOC(=O)CCC(C(=O)OCC)n1nnc2ccc(Nc3c(C)[n+]([O-])c4cc(F)c(OCC)cc4[n+]3[O-])cc21 (stereo unspecified) | 42 µM | > 100 µM | > 100 µM | 43.1 µM | > 100 µM | > 100 µM | > 100 µM | > 100 µM | > 100 µM | > 100 µM | > 100 µM | > 100 µM | – | – | –
9 | O=C1CCc2ccccc2O1 | > 100 µM | > 100 µM | > 100 µM | > 100 µM | > 100 µM | > 100 µM | > 100 µM | > 100 µM | > 100 µM | > 100 µM | > 100 µM | > 100 µM | – | – | –
10 | O=C(NCCCc1cn[nH]c(=O)n1)c1cccc2nc3ccccc3nc12 | > 100 µM | > 100 µM | > 100 µM | > 100 µM | > 100 µM | > 100 µM | > 100 µM | > 100 µM | > 100 µM | > 100 µM | > 100 µM | > 100 µM | – | – | –
11 | Clc1ccc(Nc2nnc(CNc3ccc(-c4nnc(Nc5ccc(Cl)cc5)o4)cc3)o2)cc1 | 50.6 µM | 49.7 µM | 49.3 µM | 27.8 µM | 21.8 µM | > 100 µM | 44.5 µM | 46 µM | 56.6 µM | 73.9 µM | 51.2 µM | 47.3 µM | – | – | –
12 | CC1(C)OC2OC(C(=O)c3ccccc3)C3OC(C)(C)OC3C2O1 (stereo unspecified) | > 100 µM | > 100 µM | > 100 µM | > 100 µM | > 100 µM | > 100 µM | > 100 µM | > 100 µM | > 100 µM | > 100 µM | > 100 µM | > 100 µM | – | – | –
13 | O=C1c2ccccc2C(=O)c2c(NCC3CO3)cccc21 (stereo unspecified) | > 100 µM | > 100 µM | 14.7 µM | > 45.9 µM | > 47.9 µM | 15.8 µM | 23.7 µM | > 100 µM | > 100 µM | 17.9 µM | 12.7 µM | > 100 µM | – | – | –
14 | CCOC(=O)[C@H](CO)Nc1c(O)c2c(c(O)c1Cl)C(=O)C=CC2=O | > 10 µM | > 10 µM | > 10 µM | > 10 µM | > 10 µM | > 10 µM | > 10 µM | > 10 µM | > 10 µM | > 10 µM | > 10 µM | > 10 µM | – | – | –
15 | CCOP(=O)(OCC)C(C)(CC)/N=C(\N)NC#N (stereo unspecified) | > 100 µM | > 100 µM | > 100 µM | > 100 µM | > 100 µM | > 100 µM | > 100 µM | > 100 µM | > 100 µM | > 100 µM | > 100 µM | > 100 µM | – | – | –
16 | COC(=O)C1=C(C)NC2=C(C(=O)c3ccccc32)C1c1cn[nH]c1-c1ccccc1 (stereo unspecified) | > 100 µM | > 100 µM | > 100 µM | > 100 µM | > 100 µM | > 100 µM | > 100 µM | > 100 µM | > 100 µM | > 100 µM | > 100 µM | > 100 µM | – | – | –
17 | N#CCN1CCCN(CC#N)CCN(CC#N)CCCN(CC#N)CC1 | > 100 µM | > 100 µM | > 100 µM | > 100 µM | > 100 µM | > 100 µM | > 100 µM | > 100 µM | > 100 µM | > 100 µM | > 100 µM | > 100 µM | – | – | –
18 | CN(C)CCCN=c1c2ccccc2n(C)c2[nH]c(=O)n(C)c(=O)c12 | 13.8 µM | 50.3 µM | 12.1 µM | 24.7 µM | > 64.8 µM | 6.47 µM | 16.2 µM | > 64.4 µM | > 54.7 µM | > 46.6 µM | 28.1 µM | 18.4 µM | – | – | –
19 | CCN(CCN(CC)C(=O)NC)C(=O)NC | > 100 µM | > 100 µM | > 100 µM | > 100 µM | > 100 µM | > 100 µM | > 100 µM | > 100 µM | > 100 µM | > 100 µM | > 100 µM | > 100 µM | – | – | –
20 | CC(=O)OC12OC(C)(C3C(=O)N(c4ccccc4)C(=O)C31)N(c1ccccc1)C2=O (stereo unspecified) | > 100 µM | > 100 µM | > 100 µM | > 100 µM | > 100 µM | > 100 µM | > 100 µM | > 100 µM | > 100 µM | > 100 µM | > 100 µM | > 100 µM | – | – | –
21 | O=C1C(c2c(O)[nH]c3ccc(I)cc23)=Nc2ccccc21 | > 75.1 µM | 22.8 µM | > 100 µM | 21.3 µM | 4.39 µM | > 100 µM | > 100 µM | 42.8 µM | > 100 µM | 17.2 µM | > 56.7 µM | 6.94 µM | – | – | –
22 | NCCN(CCN)/[N+]([O-])=N/O | > 100 µM | > 100 µM | > 100 µM | > 100 µM | > 100 µM | > 100 µM | > 100 µM | > 100 µM | > 100 µM | > 100 µM | > 100 µM | > 100 µM | – | – | –
